Patent publication US10383848B2, “Indole-based therapeutics” (Creighton University, priority 2016, dated 2019)
In brackets after ≈: the same amount, converted by molar mass.

Assays:
Format in all cases: cell-based
M. abscessus ATCC 19977 = assay: MIC, resazurin microtiter assay; settings: Mycobacteroides abscessus, ATCC19977; Mueller Hinton II; read-out: MIC M. abscessus ATCC 19977
[1] = tested on: M. massiliense CIP 108297; assay: MIC, resazurin microtiter assay; settings: Mycobacteroides abscessus, CIP108297, Mueller Hinton II; read-out: MIC M. massiliense CIP 108297
[2] = tested on: M. tuberculosis H37Rv mc^26206; assay: microbe, parasite or virus in culture; settings: Mycobacterium tuberculosis, H37RV; read-out: MIC M. tb H37 Rv (mc2-6206)
M. smegmatis mc^2155 = assay: MIC, resazurin microtiter assay; settings: Mycolicibacterium smegmatis, MC^2155, 7H9-ADC-0.05% Tween 80; read-out: MIC M. smeg. mc^2155
M. abscessus DCI #21 = assay: MIC, resazurin microtiter assay; settings: Mycobacteroides abscessus; Mueller Hinton II; read-out: MIC M. abscessus DCI #21
M. bolletii ATCC 14472 = assay: MIC, resazurin microtiter assay; settings: Mycobacteroides abscessus, ATCC14472, Mueller Hinton II; read-out: MIC M. bolletii ATCC 14472
M. massiliense CRM 0019 = assay: MIC, resazurin microtiter assay; settings: Mycobacteroides abscessus, CRM0019, Mueller Hinton II; read-out: MIC M. massiliense CRM 0019
M. chelonae ATCC 35752 = assay: MIC, resazurin microtiter assay; settings: Mycobacteroides chelonae, ATCC35752, Mueller Hinton II; read-out: MIC M. chelonae ATCC 35752
M. intracellulare 1956 = assay: MIC, resazurin microtiter assay; settings: Mueller Hinton II; read-out: MIC M. avium Intracellulare 1956
M. xenopi WT = assay: MIC, resazurin microtiter assay; settings: Mycobacterium xenopi, Mueller Hinton II; read-out: MIC M. xenopi WT
M. avium 104 = assay: MIC, resazurin microtiter assay; settings: Mycobacterium avium, 104; Mueller Hinton II; read-out: MIC M. avium 104

Compound: CC1CCC(NC(=O)c2cc3ccccc3[nH]2)CC1 (centres unmarked) [Compound 14, N-((1s,4s)-4-methylcyclohexyl)-1H-indole-2-carboxamide]
- MIC (M. abscessus ATCC 19977): > 32 µg/mL
- MIC [1]: > 32 µg/mL
- MIC [2]: > 10 µg/mL
- MIC (M. smegmatis mc^2155): > 25 µg/mL
- MIC (M. abscessus DCI #21): > 32 µg/mL
- MIC (M. bolletii ATCC 14472): > 32 µg/mL
- MIC (M. massiliense CRM 0019): > 32 µg/mL
- MIC (M. chelonae ATCC 35752): > 32 µg/mL

Compound: O=C(NC1CCCC1)c1cc2ccccc2[nH]1 [Compound 13, N-cyclopentyl-1H-indole-2-carboxamide]
- MIC (M. abscessus ATCC 19977): > 32 µg/mL
- MIC [1]: > 32 µg/mL
- MIC [2]: > 10 µg/mL
- MIC (M. smegmatis mc^2155): > 25 µg/mL
- MIC (M. abscessus DCI #21): > 32 µg/mL
- MIC (M. bolletii ATCC 14472): > 32 µg/mL
- MIC (M. massiliense CRM 0019): > 32 µg/mL
- MIC (M. chelonae ATCC 35752): > 32 µg/mL

Compound: O=C(NC1CCCCC1)c1cc2ccccc2[nH]1 [Compound 12, N-cyclohexyl-1H-indole-2-carboxamide]
- MIC (M. abscessus ATCC 19977): > 32 µg/mL
- MIC [1]: > 32 µg/mL
- MIC [2]: > 10 µg/mL
- MIC (M. smegmatis mc^2155): > 25 µg/mL
- MIC (M. abscessus DCI #21): > 32 µg/mL
- MIC (M. bolletii ATCC 14472): > 32 µg/mL
- MIC (M. massiliense CRM 0019): > 32 µg/mL
- MIC (M. chelonae ATCC 35752): > 32 µg/mL

Compound: CCCCCCCNC(=O)c1cc2ccccc2[nH]1 [Compound 17, N-heptyl-1H-indole-2-carboxamide]
- MIC (M. abscessus ATCC 19977): > 32 µg/mL
- MIC [1]: > 32 µg/mL
- MIC [2]: > 10 µg/mL
- MIC (M. smegmatis mc^2155): > 25 µg/mL
- MIC (M. abscessus DCI #21): > 32 µg/mL
- MIC (M. bolletii ATCC 14472): > 32 µg/mL
- MIC (M. massiliense CRM 0019): > 32 µg/mL
- MIC (M. chelonae ATCC 35752): > 32 µg/mL

Compound: O=C(NCC12CC3CC(CC(C3)C1)C2)c1cc2ccccc2[nH]1 [Compound 8, N-(1-(1-adamantyl)methyl)-1H-indole-2-carboxamide]
- MIC (M. abscessus ATCC 19977): 2 µg/mL (≈ 6.48 µM)
- MIC [1]: 2 µg/mL (≈ 6.48 µM)
- MIC [2]: > 5 µg/mL
- MIC (M. intracellulare 1956): > 32 µg/mL
- MIC (M. smegmatis mc^2155): > 20 µg/mL
- MIC (M. abscessus DCI #21): 2 µg/mL (≈ 6.48 µM)
- MIC (M. xenopi WT): 4 µg/mL (≈ 13 µM)
- MIC (M. bolletii ATCC 14472): 2 µg/mL (≈ 6.48 µM)
- MIC (M. massiliense CRM 0019): > 32 µg/mL
- MIC (M. chelonae ATCC 35752): 1 µg/mL (≈ 3.24 µM)
- MIC (M. avium 104): > 32 µg/mL

Compound: CCCCCCCCNC(=O)c1cc2c(C)cc(C)cc2[nH]1 [Compound 33, N-octyl-4,6-dimethyl-1H-indole-2-carboxamide]
- MIC (M. abscessus ATCC 19977): > 32 µg/mL
- MIC [1]: > 32 µg/mL
- MIC [2]: > 20 µg/mL
- MIC (M. intracellulare 1956): > 32 µg/mL
- MIC (M. smegmatis mc^2155): 2.5 to 5 µg/mL (≈ 8.32 to 16.6 µM)
- MIC (M. abscessus DCI #21): > 32 µg/mL
- MIC (M. xenopi WT): > 32 µg/mL
- MIC (M. bolletii ATCC 14472): > 32 µg/mL
- MIC (M. massiliense CRM 0019): > 32 µg/mL
- MIC (M. chelonae ATCC 35752): > 32 µg/mL
- MIC (M. avium 104): > 32 µg/mL

Compound: Cc1cc(C)c2cc(C(=O)NC3CCCCC3)[nH]c2c1 [Compound 27, N-cyclohexyl-4,6-dimethyl-1H-indole-2-carboxamide]
- MIC (M. abscessus ATCC 19977): 0.5 µg/mL (≈ 1.85 µM)
- MIC [1]: 0.25 µg/mL (≈ 0.925 µM)
- MIC (M. intracellulare 1956): > 32 µg/mL
- MIC (M. smegmatis mc^2155): 2.5 µg/mL (≈ 9.25 µM)
- MIC (M. abscessus DCI #21): 0.25 µg/mL (≈ 0.925 µM)
- MIC (M. xenopi WT): 1 to 2 µg/mL (≈ 3.7 to 7.4 µM)
- MIC (M. bolletii ATCC 14472): 0.25 µg/mL (≈ 0.925 µM)
- MIC (M. massiliense CRM 0019): 0.25 µg/mL (≈ 0.925 µM)
- MIC (M. chelonae ATCC 35752): 0.25 µg/mL (≈ 0.925 µM)
- MIC (M. avium 104): > 32 µg/mL

Compound: O=C(NC1C2CC3CC(C2)CC1C3)c1cc2ccccc2[nH]1 (centres unmarked) [Compound 9, N-(2-adamantyl)-1H-indole-2-carboxamide]
- MIC (M. abscessus ATCC 19977): > 32 µg/mL
- MIC [1]: > 32 µg/mL
- MIC [2]: 0.39 µg/mL (≈ 1.32 µM)
- MIC (M. intracellulare 1956): > 32 µg/mL
- MIC (M. smegmatis mc^2155): > 25 µg/mL
- MIC (M. abscessus DCI #21): > 32 µg/mL
- MIC (M. xenopi WT): 2 µg/mL (≈ 6.79 µM)
- MIC (M. bolletii ATCC 14472): 32 µg/mL (≈ 109 µM)
- MIC (M. massiliense CRM 0019): 32 µg/mL (≈ 109 µM)
- MIC (M. chelonae ATCC 35752): > 32 µg/mL
- MIC (M. avium 104): > 32 µg/mL

Compound: Cc1cc(C)c2cc(C(=O)NC3C4CC5CC(C4)CC3C5)[nH]c2c1 (centres unmarked) [Compound 24, N-2-adamantyl-4,6-dimethyl-1H-indole-2-carboxamide]
- MIC (M. abscessus ATCC 19977): > 32 µg/mL
- MIC [1]: > 32 µg/mL
- MIC (M. intracellulare 1956): > 32 µg/mL
- MIC (M. smegmatis mc^2155): > 20 µg/mL
- MIC (M. abscessus DCI #21): > 32 µg/mL
- MIC (M. xenopi WT): 0.5 to 1 µg/mL (≈ 1.55 to 3.1 µM)
- MIC (M. bolletii ATCC 14472): > 32 µg/mL
- MIC (M. massiliense CRM 0019): > 32 µg/mL
- MIC (M. chelonae ATCC 35752): > 32 µg/mL
- MIC (M. avium 104): > 32 µg/mL

Compound: CCCCCCCNC(=O)c1cc2c(C)cc(C)cc2[nH]1 [Compound 32, N-heptyl-4,6-dimethyl-1H-indole-2-carboxamide]
- MIC (M. abscessus ATCC 19977): > 32 µg/mL
- MIC [1]: > 32 µg/mL
- MIC [2]: > 5 µg/mL
- MIC (M. intracellulare 1956): > 32 µg/mL
- MIC (M. smegmatis mc^2155): 5 µg/mL (≈ 17.5 µM)
- MIC (M. abscessus DCI #21): > 32 µg/mL
- MIC (M. xenopi WT): > 32 µg/mL
- MIC (M. bolletii ATCC 14472): 32 µg/mL (≈ 112 µM)
- MIC (M. massiliense CRM 0019): > 32 µg/mL
- MIC (M. chelonae ATCC 35752): > 32 µg/mL
- MIC (M. avium 104): > 32 µg/mL

Compound: Cc1cc(C)c2cc(C(=O)NC3CCCC3)[nH]c2c1 [Compound 28, N-cyclopentyl-4,6-dimethyl-1H-indole-2-carboxamide]
- MIC (M. abscessus ATCC 19977): 4 µg/mL (≈ 15.6 µM)
- MIC [1]: 8 µg/mL (≈ 31.2 µM)
- MIC [2]: 2.5 µg/mL (≈ 9.75 µM)
- MIC (M. intracellulare 1956): > 32 µg/mL
- MIC (M. smegmatis mc^2155): 5 µg/mL (≈ 19.5 µM)
- MIC (M. abscessus DCI #21): 4 µg/mL (≈ 15.6 µM)
- MIC (M. xenopi WT): 8 to 16 µg/mL (≈ 31.2 to 62.4 µM)
- MIC (M. bolletii ATCC 14472): 2 µg/mL (≈ 7.8 µM)
- MIC (M. massiliense CRM 0019): 8 µg/mL (≈ 31.2 µM)
- MIC (M. chelonae ATCC 35752): 2 µg/mL (≈ 7.8 µM)
- MIC (M. avium 104): > 32 µg/mL
